Laboratory results taken from ChEMBL document CHEMBL1275409, “Antimicrobial-resistant pathogens in intensive care units in Canada: results of the Canadian National Intensive Care Unit (CAN-ICU) study, 2005-2006” (2008).

Experiments:
Format in all cases: functional
Staphylococcus aureus [1] = test: Antimicrobial activity against methicillin-resistant Staphylococcus aureus isolated from ICU patient blood assessed as resistant isolates by broth microdilution method
[2] = system: Staphylococcus epidermidis; test: Antimicrobial activity against methicillin-susceptible Staphylococcus epidermidis isolated from ICU patient urine assessed as resistant isolates by broth microdilution method
Haemophilus influenzae [3] = test: Antimicrobial activity against Haemophilus influenzae isolated from ICU patient respiratory tract assessed as resistant isolates by broth microdilution method
Staphylococcus aureus [4] = test: Antimicrobial activity against methicillin-resistant Staphylococcus aureus isolated from ICU patient wound assessed as resistant isolates by broth microdilution method
[5] = system: Staphylococcus epidermidis; test: Antimicrobial activity against methicillin-susceptible Staphylococcus epidermidis isolated from ICU patient blood assessed as resistant isolates by broth microdilution method
Pseudomonas aeruginosa [6] = test: Antimicrobial activity against carbapenem-resistant Pseudomonas aeruginosa isolated from ICU patient respiratory tract assessed as resistant isolates by broth microdilution method
Pseudomonas aeruginosa [7] = test: Antimicrobial activity against carbapenem-resistant Pseudomonas aeruginosa isolated from ICU patient urine assessed as resistant isolates by broth microdilution method
Haemophilus influenzae [8] = test: Antimicrobial activity against Haemophilus influenzae isolated from ICU patient wound assessed as resistant isolates by broth microdilution method
Streptococcus pneumoniae [9] = test: Antimicrobial activity against penicillin-resistant Streptococcus pneumoniae isolated from ICU patient wound assessed as resistant isolates by broth microdilution method
Staphylococcus aureus [10] = test: Antimicrobial activity against methicillin-susceptible Staphylococcus aureus isolated from ICU patient blood assessed as resistant isolates by broth microdilution method
Klebsiella pneumoniae [11] = test: Antimicrobial activity against ESBL producing Klebsiella pneumoniae assessed as resistant isolates by broth microdilution method
[12] = system: Staphylococcus epidermidis; test: Antimicrobial activity against methicillin-resistant Staphylococcus epidermidis isolated from ICU patient blood assessed as resistant isolates by broth microdilution method
[13] = system: Staphylococcus epidermidis; test: Antimicrobial activity against methicillin-resistant Staphylococcus epidermidis isolated from ICU patient urine assessed as resistant isolates by broth microdilution method
Streptococcus pneumoniae [14] = test: Antimicrobial activity against penicillin-resistant Streptococcus pneumoniae isolated from ICU patient blood assessed as resistant isolates by broth microdilution method
Pseudomonas aeruginosa [15] = test: Antimicrobial activity against carbapenem-resistant Pseudomonas aeruginosa isolated from ICU patient blood assessed as resistant isolates by broth microdilution method
Haemophilus influenzae [16] = test: Antimicrobial activity against Haemophilus influenzae isolated from ICU patient blood assessed as resistant isolates by broth microdilution method
[17] = system: Staphylococcus epidermidis; test: Antimicrobial activity against methicillin-susceptible Staphylococcus epidermidis isolated from ICU patient wound assessed as resistant isolates by broth microdilution method
Streptococcus pneumoniae [18] = test: Antimicrobial activity against penicillin-resistant Streptococcus pneumoniae isolated from ICU patient respiratory tract assessed as resistant isolates by broth microdilution method
[19] = system: Staphylococcus epidermidis; test: Antimicrobial activity against methicillin-resistant Staphylococcus epidermidis isolated from ICU patient wound assessed as resistant isolates by broth microdilution method
Klebsiella pneumoniae [20] = test: Antimicrobial activity against ESBL producing Klebsiella pneumoniae isolated from ICU patient blood assessed as resistant isolates by broth microdilution method
Staphylococcus aureus [21] = test: Antimicrobial activity against methicillin-susceptible Staphylococcus aureus isolated from ICU patient respiratory tract assessed as resistant isolates by broth microdilution method
Streptococcus pneumoniae [22] = test: Antimicrobial activity against penicillin-resistant Streptococcus pneumoniae assessed as resistant isolates by broth microdilution method
Pseudomonas aeruginosa [23] = test: Antimicrobial activity against carbapenem-resistant Pseudomonas aeruginosa isolated from ICU patient wound assessed as resistant isolates by broth microdilution method
[24] = system: Staphylococcus epidermidis; test: Antimicrobial activity against methicillin-susceptible Staphylococcus epidermidis assessed as resistant isolates by broth microdilution method
Escherichia coli [25] = test: Antimicrobial activity against CTX-M ESBL producing Escherichia coli assessed as resistant isolates by broth microdilution method
[26] = system: Staphylococcus epidermidis; test: Antimicrobial activity against methicillin-resistant Staphylococcus epidermidis assessed as resistant isolates by broth microdilution method
Escherichia coli [27] = test: Antimicrobial activity against CTX-M ESBL producing Escherichia coli isolated from ICU patient respiratory tract assessed as resistant isolates by broth microdilution method
Staphylococcus aureus [28] = test: Antimicrobial activity against methicillin-susceptible Staphylococcus aureus isolated from ICU patient urine assessed as resistant isolates by broth microdilution method
Haemophilus influenzae [29] = test: Antimicrobial activity against Haemophilus influenzae assessed as resistant isolates by broth microdilution method
Klebsiella pneumoniae [30] = test: Antimicrobial activity against ESBL producing Klebsiella pneumoniae isolated from ICU patient urine assessed as resistant isolates by broth microdilution method
Pseudomonas aeruginosa [31] = test: Antimicrobial activity against carbapenem-resistant Pseudomonas aeruginosa assessed as resistant isolates by broth microdilution method
Escherichia coli [32] = test: Antimicrobial activity against CTX-M ESBL producing Escherichia coli isolated from ICU patient urine assessed as resistant isolates by broth microdilution method
Staphylococcus aureus [33] = test: Antimicrobial activity against methicillin-susceptible Staphylococcus aureus isolated from ICU patient wound assessed as resistant isolates by broth microdilution method
Klebsiella pneumoniae [34] = test: Antimicrobial activity against ESBL producing Klebsiella pneumoniae isolated from ICU patient wound assessed as resistant isolates by broth microdilution method
[35] = system: Staphylococcus epidermidis; test: Antimicrobial activity against methicillin-susceptible Staphylococcus epidermidis isolated from ICU patient respiratory tract assessed as resistant isolates by broth microdilution method
Staphylococcus aureus [36] = test: Antimicrobial activity against methicillin-susceptible Staphylococcus aureus assessed as resistant isolates by broth microdilution method
Staphylococcus aureus [37] = test: Antimicrobial activity against methicillin-resistant Staphylococcus aureus isolated from ICU patient urine assessed as resistant isolates by broth microdilution method
Klebsiella pneumoniae [38] = test: Antimicrobial activity against ESBL producing Klebsiella pneumoniae isolated from ICU patient respiratory tract assessed as resistant isolates by broth microdilution method
Escherichia coli [39] = test: Antimicrobial activity against CTX-M ESBL producing Escherichia coli isolated from ICU patient blood assessed as resistant isolates by broth microdilution method
Staphylococcus aureus [40] = test: Antimicrobial activity against methicillin-resistant Staphylococcus aureus assessed as resistant isolates by broth microdilution method
Staphylococcus aureus [41] = test: Antimicrobial activity against methicillin-resistant Staphylococcus aureus isolated from ICU patient respiratory tract assessed as resistant isolates by broth microdilution method
Enterococcus sp. [42] = test: Antimicrobial activity against vancomycin-resistant Enterococcus sp. isolated from ICU patient wound assessed as resistant isolates by broth microdilution method
Enterococcus sp. [43] = test: Antimicrobial activity against vancomycin-resistant Enterococcus sp. isolated from ICU patient urine assessed as resistant isolates by broth microdilution method
Enterococcus sp. [44] = test: Antimicrobial activity against vancomycin-resistant Enterococcus sp. isolated from ICU patient respiratory tract assessed as resistant isolates by broth microdilution method
Enterococcus sp. [45] = test: Antimicrobial activity against vancomycin-resistant Enterococcus sp. assessed as resistant isolates by broth microdilution method
Escherichia coli [46] = test: Antimicrobial activity against CTX-M ESBL producing Escherichia coli isolated from ICU patient wound assessed as resistant isolates by broth microdilution method
Enterococcus sp. [47] = test: Antimicrobial activity against vancomycin-resistant Enterococcus sp. isolated from ICU patient blood assessed as resistant isolates by broth microdilution method
Enterobacter cloacae [48] = test: Antimicrobial activity against carbapenem-resistant Enterobacter cloacae isolated from ICU patient urine assessed as resistant isolates by broth microdilution method
Enterobacter cloacae [49] = test: Antimicrobial activity against carbapenem-resistant Enterobacter cloacae isolated from ICU patient respiratory tract assessed as resistant isolates by broth microdilution method
Enterobacter cloacae [50] = test: Antimicrobial activity against carbapenem-resistant Enterobacter cloacae isolated from ICU patient wound assessed as resistant isolates by broth microdilution method
Enterobacter cloacae [51] = test: Antimicrobial activity against carbapenem-resistant Enterobacter cloacae isolated from ICU patient blood assessed as resistant isolates by broth microdilution method
Enterobacter cloacae [52] = test: Antimicrobial activity against carbapenem-resistant Enterobacter cloacae assessed as resistant isolates by broth microdilution method

SMILES: CO/N=C(\C(=O)N[C@@H]1C(=O)N2C(C(=O)[O-])=C(C[N+]3(C)CCCC3)CS[C@H]12)c1csc(N)n1
- Activity (Staphylococcus aureus [1]): 100%
- Activity [2]: 20%
- Activity (Haemophilus influenzae [3]): 0%
- Activity (Staphylococcus aureus [4]): 100%
- Activity [5]: 8.9%
- Activity (Pseudomonas aeruginosa [6]): 0%
- Activity (Pseudomonas aeruginosa [7]): 0%
- Activity (Haemophilus influenzae [8]): 0%
- Activity (Streptococcus pneumoniae [9]): 0%
- Activity (Staphylococcus aureus [10]): 0%
- Activity (Klebsiella pneumoniae [11]): 10.2%
- Activity [12]: 100%
- Activity [13]: 100%
- Activity (Streptococcus pneumoniae [14]): 0%
- Activity (Pseudomonas aeruginosa [15]): 0%
- Activity (Haemophilus influenzae [16]): 0%
- Activity [17]: 33.3%
- Activity (Streptococcus pneumoniae [18]): 0%
- Activity [19]: 100%
- Activity (Klebsiella pneumoniae [20]): 9.1%
- Activity (Staphylococcus aureus [21]): 0%
- Activity (Streptococcus pneumoniae [22]): 0%
- Activity (Pseudomonas aeruginosa [23]): 0%
- Activity [24]: 16.3%
- Activity (Escherichia coli [25]): 0.7%
- Activity [26]: 100%
- Activity (Escherichia coli [27]): 0.8%
- Activity (Staphylococcus aureus [28]): 0%
- Activity (Haemophilus influenzae [29]): 0%
- Activity (Klebsiella pneumoniae [30]): 17.8%
- Activity (Pseudomonas aeruginosa [31]): 0%
- Activity (Escherichia coli [32]): 0.4%
- Activity (Staphylococcus aureus [33]): 0%
- Activity (Klebsiella pneumoniae [34]): 18.9%
- Activity [35]: 0%
- Activity (Staphylococcus aureus [36]): 0%
- Activity (Staphylococcus aureus [37]): 100%
- Activity (Klebsiella pneumoniae [38]): 7.6%
- Activity (Escherichia coli [39]): 1.4%
- Activity (Staphylococcus aureus [40]): 100%
- Activity (Staphylococcus aureus [41]): 100%

SMILES: O=C(O)c1cn(C2CC2)c2cc(N3CCNCC3)c(F)cc2c1=O [CIPROFLOXACIN]
- Activity [2]: 80%
- Activity (Haemophilus influenzae [3]): 0%
- Activity (Enterococcus sp. [42]): 50%
- Activity (Staphylococcus aureus [4]): 92.6%
- Activity [5]: 44.6%
- Activity (Pseudomonas aeruginosa [6]): 4.1%
- Activity (Pseudomonas aeruginosa [7]): 0%
- Activity (Haemophilus influenzae [8]): 0%
- Activity (Streptococcus pneumoniae [9]): 0%
- Activity (Staphylococcus aureus [10]): 6.9%
- Activity (Klebsiella pneumoniae [11]): 23.8%
- Activity [12]: 100%
- Activity (Enterococcus sp. [43]): 54.7%
- Activity [13]: 100%
- Activity (Streptococcus pneumoniae [14]): 0%
- Activity (Pseudomonas aeruginosa [15]): 3.9%
- Activity (Haemophilus influenzae [16]): 0%
- Activity [17]: 70.8%
- Activity (Streptococcus pneumoniae [18]): 2.6%
- Activity [19]: 100%
- Activity (Klebsiella pneumoniae [20]): 24.2%
- Activity (Staphylococcus aureus [21]): 7.5%
- Activity (Streptococcus pneumoniae [22]): 2.1%
- Activity (Pseudomonas aeruginosa [23]): 11.5%
- Activity [24]: 54.7%
- Activity (Enterococcus sp. [44]): 46.7%
- Activity (Enterococcus sp. [45]): 53.4%
- Activity (Escherichia coli [25]): 21.1%
- Activity [26]: 100%
- Activity (Escherichia coli [27]): 21.3%
- Activity (Staphylococcus aureus [28]): 20%
- Activity (Haemophilus influenzae [29]): 0%
- Activity (Klebsiella pneumoniae [30]): 37.8%
- Activity (Pseudomonas aeruginosa [31]): 4%
- Activity (Escherichia coli [32]): 19.8%
- Activity (Staphylococcus aureus [33]): 8%
- Activity (Escherichia coli [46]): 24.1%
- Activity (Klebsiella pneumoniae [34]): 28.3%
- Activity [35]: 100%
- Activity (Staphylococcus aureus [37]): 100%
- Activity (Enterococcus sp. [47]): 58.1%
- Activity (Klebsiella pneumoniae [38]): 20.8%
- Activity (Escherichia coli [39]): 23.3%

SMILES: C[C@H]1COc2c(N3CCN(C)CC3)c(F)cc3c(=O)c(C(=O)O)cn1c23.C[C@H]1COc2c(N3CCN(C)CC3)c(F)cc3c(=O)c(C(=O)O)cn1c23.O [LEVOFLOXACIN]
- Activity (Enterobacter cloacae [48]): 6.3%
- Activity (Staphylococcus aureus [1]): 91.8%
- Activity [2]: 80%
- Activity (Enterobacter cloacae [49]): 0%
- Activity (Haemophilus influenzae [3]): 0%
- Activity (Enterococcus sp. [42]): 45.8%
- Activity (Staphylococcus aureus [4]): 92.6%
- Activity [5]: 42.9%
- Activity (Pseudomonas aeruginosa [6]): 3.3%
- Activity (Pseudomonas aeruginosa [7]): 0%
- Activity (Haemophilus influenzae [8]): 0%
- Activity (Streptococcus pneumoniae [9]): 0%
- Activity (Staphylococcus aureus [10]): 6.9%
- Activity (Klebsiella pneumoniae [11]): 25.5%
- Activity (Enterobacter cloacae [50]): 5.9%
- Activity [12]: 100%
- Activity (Enterococcus sp. [43]): 52%
- Activity [13]: 100%
- Activity (Streptococcus pneumoniae [14]): 0%
- Activity (Pseudomonas aeruginosa [15]): 3.9%
- Activity (Haemophilus influenzae [16]): 0%
- Activity [17]: 66.7%
- Activity (Streptococcus pneumoniae [18]): 2.1%
- Activity [19]: 100%
- Activity (Klebsiella pneumoniae [20]): 24.2%
- Activity (Staphylococcus aureus [21]): 6.9%
- Activity (Streptococcus pneumoniae [22]): 1.7%
- Activity (Pseudomonas aeruginosa [23]): 11.5%
- Activity [24]: 52.3%
- Activity (Enterococcus sp. [44]): 46.7%
- Activity (Enterococcus sp. [45]): 51%
- Activity (Enterobacter cloacae [51]): 4.2%
- Activity (Escherichia coli [25]): 21.1%
- Activity [26]: 100%
- Activity (Escherichia coli [27]): 21.3%
- Activity (Staphylococcus aureus [28]): 20%
- Activity (Haemophilus influenzae [29]): 0%
- Activity (Klebsiella pneumoniae [30]): 40%
- Activity (Pseudomonas aeruginosa [31]): 3.6%
- Activity (Escherichia coli [32]): 19.8%
- Activity (Staphylococcus aureus [33]): 7.1%
- Activity (Escherichia coli [46]): 24.1%
- Activity [35]: 100%
- Activity (Staphylococcus aureus [36]): 7.3%
- Activity (Staphylococcus aureus [37]): 100%
- Activity (Enterococcus sp. [47]): 56.8%
- Activity (Klebsiella pneumoniae [38]): 21.5%
- Activity (Enterobacter cloacae [52]): 1.8%
- Activity (Escherichia coli [39]): 23.3%
- Activity (Staphylococcus aureus [40]): 91.8%
- Activity (Staphylococcus aureus [41]): 91.5%
